From patent US20240173333A1, “Treating Alagille Syndrome (ALGS)” (priority 2022, published 2024)
Values joined by “and” are separate entries in the source; they are usually repeats but may differ in a detail not shown here. Equal entries are not always repeated. “Also recorded” adds a separate entry of the source. Marks after values point to notes of the source that are not given here.

Columns and labels:
[1] = system: patients with Alagille syndrome (ALGS); experiment: ASSERT: global impression of change (CGIC, CaGIC, PGIC) and exit survey; format: in vivo, human; conditions: week 24
Method: FIG. 27 is a table showing global impressions of change (GIC) over time. GIC items are assessed on a 7-point scale: 1=very much better; 2=much/moderately better; 3=a little better; 4=no change; 5=a little worse; 6=much/moderately worse; 7=very much worse. Changes based on the GIC were analyzed using a proportional odds model with treatment and baseline GIS scores as covariates considering three categories (better, no change, worse). Better includes “very much better,” “much better,” and “a little better,” and worse includes “a little worse,” “much worse,” and “very much worse.” CaGIC=Caregiver Global Impression of Change. CGIC=Clinician Global Impression of Change. PGIC=Patient Global Impression of Change. Global Impression of Change and Global Impression of Symptom Measures. Patients (≥8 years of age), caregivers, and clinicians completed global impression of change (GIC) measures (patient global impression of change (PGIC), caregiver global impression of change (CaGIC), and clinical global impression of change (CGIC)) and the global impression of symptoms (GIS) measures (patient global impression of symptoms (PGIS), caregiver global impression of symptoms (CaGIS), clinical global impression of symptoms (CGIS)) at randomization (Study Day 1; PGIS only), Week 4, 12, and 24/EOT. The GIC items assessed changes in itch (patient version), scratching (caregiver and clinician versions), and sleep (all versions) since starting the study drug. The GIS items assessed itch (patient version), scratching (caregiver and clinician versions), and sleep (all versions) in the past week. Caregivers and clinicians completed the GIC and GIS for all patients; those patients ≥8 years of age completed the patient version.

[2] = system: patients with Alagille syndrome (ALGS); experiment: ASSERT pruritus responders: TEAEs
Excerpt: (§1) Treatment with concomitant medications for pruritus was permitted provided the patient was on a stable dosage for ≥4 weeks prior to enrollment that was maintained throughout the study.
(§2) Pruritus responders were defined as patients having a ≥1-point decrease in ObsRO scratching score from baseline to weeks 21-24).

[3] = system: patients with Alagille syndrome (ALGS); experiment: ASSERT: safety, treatment-emergent adverse events; format: in vivo, human
Excerpt: Safety. The primary safety analysis for this study included the incidence of total treatment-emergent adverse events (AEs) and treatment-emergent adverse events (TEAEs) categorized by causality, severity, and seriousness assessments made by the investigator by comparing study drug exposure to placebo. Other safety assessments included physical examinations, concomitant medications, vital signs, laboratory tests, and liver ultrasound and elastography.

[4] = system: patients with Alagille syndrome (ALGS); experiment: ASSERT pruritus responders: caregiver-reported PedsQL
Excerpt: as §1, §2

[5] = system: patients with Alagille syndrome (ALGS); experiment: ASSERT pruritus responders: serum bile acids
Excerpt: as §1, §2

[6] = system: patients with ALGS; conditions: 6 patients with ALGS; 4 weeks; open-label; cited from earlier work

CCCCC1(CCCC)CN(c2ccccc2)c2cc(SC)c(OCC(=O)N[C@@H](C(=O)N[C@@H](CC)C(=O)O)c3ccc(O)cc3)cc2S(=O)(=O)N1 [odevixibat, 1,1-dioxo-3,3-dibutyl-5-phenyl-7-methylthio-8-(N-{(R)-α-[N-((S)-1-carboxypropyl)carbamoyl]-4-hydroxybenzyl}carbamoylmethoxy)-2,3,4,5-tetrahydro-1,2,5-benzothiadiazepine]
CGIC for scratching, percentage of clinician responses (improved) [1]: 80%
CGIC for sleep, percentage of clinician responses (improved) [1]: 74%
CaGIC for scratching, percentage of caregiver responses (improved pruritus) [1]: 87% and 88%
CaGIC for sleep, percentage of caregiver responses (improved sleep) [1]: 78%
PGIC for itching, percentage of patient responses (improved) ([1]; patients ≥8 years): 80%
PGIC for sleep, percentage of patient responses (improved) ([1]; patients ≥8 years): 70%
odds of improvement in sleep, relative to placebo (CaGIC) ([1]; proportional odds model): nine times higher
odds of improvement versus no change or worsening in scratching, relative to placebo (CaGIC) ([1]; proportional odds model): 15 times
pruritus responders reporting any TEAE ([2]; 21 of 28): 75%
TEAEs leading to death or study drug discontinuation ([2]; pruritus responders): no TEAEs leading to death or study drug discontinuation were reported
Any TEAE ([2]; pruritus responders, n=28): 21 (75) n (%)
Any TEAE: Mild ([2]; pruritus responders, n=28): 10 (36) n (%)
Any TEAE: Moderate ([2]; pruritus responders, n=28): 8 (29) n (%)
Any TEAE: Severe ([2]; pruritus responders, n=28): 3 (11) n (%)
Drug-related TEAE: Abdominal pain ([2]; pruritus responders, n=28): 1 (4) n (%)
Drug-related TEAE: Abdominal pain upper ([2]; pruritus responders, n=28): 1 (4) n (%)
Drug-related TEAE: Blood triglycerides increased ([2]; pruritus responders, n=28): 1 (4) n (%)
Drug-related TEAE: Diarrhea ([2]; pruritus responders, n=28): 4 (14) n (%)
Drug-related TEAE: Feces discolored ([2]; pruritus responders, n=28): 1 (4) n (%)
Drug-related TEAE: Frequent bowel movements ([2]; pruritus responders, n=28): 1 (4) n (%)
Drug-related TEAE: Hematemesis ([2]; pruritus responders, n=28): 1 (4) n (%)
Drug-related TEAE: Hepatic enzyme increased ([2]; pruritus responders, n=28): 1 (4) n (%)
Drug-related TEAE: INR increased ([2]; pruritus responders, n=28): 1 (4) n (%)
Drug-related TEAE: Nausea ([2]; pruritus responders, n=28): 1 (4) n (%)
Drug-related TEAE: Vomiting ([2]; pruritus responders, n=28): 2 (7) n (%)
Drug-related TEAE: Weight decreased ([2]; pruritus responders, n=28): 1 (4) n (%)
Drug-related TEAEs ([2]; pruritus responders, n=28): 8 (29) n (%)
Drug-related serious TEAEs ([2]; pruritus responders, n=28): 1 (4)^a n (%)
Serious TEAEs ([2]; pruritus responders, n=28): 3 (11) n (%)
TEAEs leading to discontinuation ([2]; pruritus responders, n=28): 0 n (%)
TEAEs leading to treatment interruption ([2]; pruritus responders, n=28): 2 (7) n (%)
tolerability ([3]; 120 μg/kg/day over 24 weeks): generally well tolerated
deaths or TEAEs leading to study drug discontinuation ([3]; 24 weeks): No deaths or treatment-emergent adverse events leading to study drug discontinuation; also recorded: no deaths or treatment-emergent adverse events (TEAEs) leading to discontinuation of treatment
incidence of COVID-19 ([3]; 24 weeks): 14.3%
incidence of GI disorders ([3]; 24 weeks): 34%
incidence of abdominal pain (preferred terms abdominal pain and abdominal pain upper) ([3]; 24 weeks): 14%
incidence of bronchitis ([3]; 24 weeks): 8.6%
incidence of infections ([3]; 24 weeks): 51.4%
incidence of liver-related events ([3]; 24 weeks): 11%
incidence of respiratory tract infection ([3]; 24 weeks): 8.6%
incidence of upper respiratory tract infection ([3]; 24 weeks): 8.6%
incidence of SAEs ([3]; 24 weeks, 120 μg/kg/day): 14.3%
incidence of drug-related TEAE diarrhea ([3]; 24 weeks, 120 μg/kg/day): 11%
incidence of drug-related TEAEs ([3]; 24 weeks, 120 μg/kg/day): 23%
incidence of treatment-emergent diarrhea ([3]; 24 weeks, 120 μg/kg/day): 29%
patients with ALT and AST elevations ≥3× baseline without concurrent (within 30 days) elevations in total bilirubin ≥2× baseline ([3]; 24 weeks, n=35): 2 patients
serious infections reported ([3]; 24 weeks, n=35): 3 patients
patients who experienced at least one TEAE ([3]; 26 of 35, 24 weeks, 120 μg/kg/day): 74%
liver decompensation events ([3]; during the study): no cases
PedsQL total score, Baseline Mean (SE) ([4]; n=24, range 0-100): 68 (3)
PedsQL total score, Mean (SE) Change From Baseline ([4]; to week 24, n=23): 16 (4)^c
PedsQL total score, Week 24 Mean (SE) ([4]; week 24, n=25): 83 (2)
Bile acids, Week 24 Mean (SE) ([5]; average of weeks 20 and 24, n=28): 136 (19) μmol/L
Bile acids, Mean (SE) Change From Baseline ([5]; baseline to average of weeks 20 and 24): −107 (23) μmol/L
Bile acids, Baseline Mean (SE) ([5]; n=28): 243 µmol/L
Bile acids, Baseline Mean (SE) ([5]; n=28, listed as Odevixibat): 243 (23) μmol/L
effect on sBAs, itch, and sleep disturbance [6]: reduced sBAs, itch, and sleep disturbance in a majority of those patients
